Experiments:
Type in all cases: cell-based
[1] = molecular target: T1, human GPR40 (Homo sapiens (Human), UniProt O14842); experiment: Inositol Phosphate Turnover (IP1) Assay 1 in HEK cells stably expressing human GPR40; conditions: compound transferred via pocket tip
Method: (§1) Human and mouse GPR40 stable cell-lines were generated in CHO cells stably expressing NFAT BLA (Beta-lactamase). A human GPR40 stable cell-line was generated in HEK cells stably expressing the aequorin expressing reporter. The expression plasmids were transfected using lipofectamine (Life Technologies) following manufacturer's instructions. Stable cell-lines were generated following drug selection.
(§2) The assay is performed in 384-well format. HEK cells stably expressing human GPR40 are plated at 15,000 cells per well in growth medium (DMEM/10% fetal calf serum). Cell plates are then incubated 16 hours at 37 degrees in a 5% CO2 incubator.
Measurement of Inositol Phosphate Turnover (IP1) is performed using the CisBio IP-One kit (Part number 62IPAPEB). After the 16 hour incubation, the cells are washed with HEPES buffer and 10 ul of stimulation buffer (prepared as described in the kit) is added to each well. In a separate plate, compounds are diluted in DMSO (400-fold over the final concentration in the assay well) and 25 nl is transferred via pocket tip to the appropriate well in the assay cell plate. The plates are then incubated for 60 minutes at 37 degrees. 10 ul of detection buffer (also prepared as described in the IP-One kit) is added to each well and the plates are incubated for 60 minutes in the dark. The plates are then read in a Perkin Elmer EnVision or equivalent reader able to measure FRET. Fluorescent ratio of emission at 665 and 620 nm is then converted to IP1 concentration by back calculating from an IP1 standard curve prepared at the time of the assay.

[2] = molecular target: T1, human GPR40; experiment: FLIPR assay, agonist-induced calcium mobilization in GPR40/CHO NFAT BLA cells
Method: as §1
FLIPR (Fluorimetric Imaging Plate Reader, Molecular Devices) assays were performed to measure agonist-induced calcium mobilization of the stable clones. For the FLIPR assay, one day before assay, GPR40/CHO NFAT BLA cells were seeded into black-wall-clear-bottom 384-well plates (Costar) at 1.4×10e4 cells/20 μL medium/well. The cells were incubated with 20 μl/well of the assay buffer (HBSS, 0.1% BSA, 20 mM HEPES, 2.5 mM probenecid, pH 7.4) containing 8 μM fluo-4, AM, 0.08% pluronic acid at room temperature for 100 minutes. Fluorescence output was measured using FLIPR. Compounds were dissolved in DMSO and diluted to desired concentrations with assay buffer. 13.3 μL/well of compound solution was added.

[3] = molecular target: T1, human GPR40; experiment: Inositol Phosphate Turnover (IP1) Assay 2 in HEK cells stably expressing human GPR40; conditions: compound acoustically transferred
Method: as §1, §2
Measurement of Inositol Phosphate Turnover (IP1) is performed using the CisBio IP-One kit (Part number 62IPAPEB). After the 16 hour incubation, the cells are washed with HEPES buffer and 10 ul of stimulation buffer (prepared as described in the kit) is added to each well. In a separate plate, compounds are diluted in DMSO (400-fold over the final concentration in the assay well) and 25 nl is acoustically transferred to the appropriate well in the assay cell plate. The plates are then incubated for 60 minutes at 37 degrees. […] The plates are then read in a Perkin Elmer EnVision or equivalent reader able to measure FRET. […]

T1 sequence (O14842 whole entry): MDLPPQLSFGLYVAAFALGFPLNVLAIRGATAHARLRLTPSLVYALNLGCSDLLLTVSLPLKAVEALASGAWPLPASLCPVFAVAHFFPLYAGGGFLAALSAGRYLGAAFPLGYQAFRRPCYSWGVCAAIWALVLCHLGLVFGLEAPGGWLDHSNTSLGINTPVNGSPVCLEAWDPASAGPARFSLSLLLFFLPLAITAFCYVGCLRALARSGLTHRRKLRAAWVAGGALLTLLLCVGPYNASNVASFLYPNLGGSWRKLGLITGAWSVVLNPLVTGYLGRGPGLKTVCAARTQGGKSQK

Row | EC50 [1] | EC50 [2] | EC50 [3] | Compound
1 | 66 nM |  |  | COc1ccc(F)c(-c2ccc(-c3cc4ccc([C@H](C5CC5)[C@H](C)C(=O)O)cc4o3)cc2)c1 [Example 1, (2S,3R)-3-cyclopropyl-3-(2-(2′-fluoro-5′-methoxy-[1,1′-biphenyl]-4-yl)benzofuran-6-yl)-2-methylpropanoic acid]
2 | 3690 nM | 815 nM |  | COc1cc(C)c(-c2cccc(-c3cc4cc(CCC(=O)O)ccc4o3)c2)cc1F [Example 9]
3 |  |  | 37 nM | COc1cc(-c2ccc(CC3Cc4ccc([C@H](C5CC5)[C@H](C)C(=O)O)cc4O3)c(F)c2)ccn1 (single isomer, unassigned) [Example 6]
4 |  | 1220 nM |  | Cc1cccc(C)c1-c1cccc(C2Cc3cc(CCC(=O)O)ccc3O2)c1 (racemic) [Example 18]
5 | 6210 nM | 306 nM |  | Cc1cc(F)cc(C)c1-c1cccc(-c2cc3cc(CCC(=O)O)ccc3o2)c1 [Example 13]
6 | 3220 nM | 203 nM |  | Cc1cccc(C)c1-c1cccc(-c2cc3cc(CCC(=O)O)ccc3o2)c1 [Example 7, 3-(2-(2′,6′-dimethyl-[1,1′-biphenyl]-3-yl)benzofuran-5-yl)propanoic acid]
7 |  |  | 35 nM | COc1cc(-c2ccc(CC3Cc4ccc([C@H](C5CC5)[C@H](C)C(=O)O)cc4O3)c(F)c2)ccn1 (single isomer, unassigned) [Example 5]
8 | 311 nM |  |  | COc1ccc(F)c(-c2ccc(C3Cc4ccc([C@@H](CC(=O)O)C5CC5)cc4O3)nc2)c1 (some centres unmarked) [Example 4]
9 | 105 nM |  |  | COc1ccc(F)c(-c2ccc(C3Cc4ccc([C@H](C5CC5)[C@H](C)C(=O)O)cc4O3)cc2)c1 (stereo partly drawn) [Example 3, (2S,3R)-3-cyclopropyl-3-(2-(2′-fluoro-5′-methoxy-[1,1′-biphenyl]-4-yl)-2,3-dihydrobenzofuran-6-yl)-2-methylpropanoic acid]
10 | > 10000 nM | 726 nM |  | O=C(O)CCc1ccc2oc(-c3cccc(-c4c(Cl)cccc4Cl)c3)cc2c1 [Example 14]
11 | 4580 nM | 1190 nM |  | COc1c(F)cc(-c2cccc(-c3cc4cc(CCC(=O)O)ccc4o3)c2)c(Cl)c1F [Example 11]
12 | > 10000 nM | 716 nM |  | Cc1cc(C)c(-c2cccc(-c3cc4cc(CCC(=O)O)ccc4o3)c2)c(F)c1 [Example 12]
13 |  | 20900 nM |  | O=C(O)CCc1ccc2oc(-c3ccc(C(F)(F)F)cc3)cc2c1 [Example 8]
14 | 215 nM |  |  | COc1ccc(F)c(-c2ccc(-c3cc4ccc([C@@H](CC(=O)O)C5CC5)cc4o3)nc2)c1 [Example 2]
15 |  | 540 nM |  | COc1cc(C)c(-c2cccc(-c3cc4cc(CCC(=O)O)ccc4o3)c2)c(C)c1 [Example 10]

Row | Compound | EC50 [1] | EC50 [2] | EC50 [3]
16 | COc1cc(C)c(-c2cccc(C3Cc4cc(CCC(=O)O)ccc4O3)c2)c(C)c1 (single isomer, unassigned) [Example 17] | 3940 nM | 4320 nM | 
17 | COc1cc(C)c(-c2cccc(C3Cc4cc(CCC(=O)O)ccc4O3)c2)c(C)c1 (centres unmarked) [Example 15] |  | 1490 nM | 
18 | COc1cc(C)c(-c2cccc(C3Cc4cc(CCC(=O)O)ccc4O3)c2)c(C)c1 (single isomer, unassigned) [Example 16] | 5870 nM | 624 nM | 

Source: patent publication US10100042B2, “[5,6]—fused bicyclic antidiabetic compounds” (Merck Sharp & Dohme Corp., priority 2014, dated 2018)
